# According to article PMC8758724, “Molecular mechanism of agonism and inverse agonism in ghrelin receptor” (Nature Communications, 2022):
# Where “and” joins values, the source holds several entries; their conditions need not be identical. Equal entries are not always repeated. Entries after “also recorded” stand apart in the source; their conditions may differ. No end group written: not given here. *: point of attachment. Octanoyl = CCCCCCCC(=O)*
# Experiments:
# [1] = tested on: wild-type ghrelin receptor; test: IP1 accumulation, wild-type ghrelin receptor, HEK293 cells, 37 °C 2 h, Cisbio IP1 kit; assay type: cell-based, human; settings: WT
# Experimental: Fig. 1 Overall structures of ghrelin receptors bound to inverse agonist and agonist. a Dose-dependent responses of endogenous agonist ghrelin, inverse agonist PF-05190457 and antagonist compound 21 containing 10 nM ghrelin peptide at wild-type ghrelin receptor measured by cellular IP1 accumulation assays. […] Data represent the mean ± SEM from n = 3 biologically independent experiments performed in triplicate. b View from within the plane of the membrane. The inverse agonist-bound ghrelin receptor is represented as a wheat cartoon, and PF-05190457 is shown as a marine blue sphere. Cryo-EM structure of the agonist ghrelin-bound ghrelin receptor-Gαo1-scFv16 complex. c Ghrelin peptides and receptors are shown as deep salmon spheres and aquamarine cartoons, respectively. The Go heterotrimer and scFv16 are shown in the gray cartoon. d View from the extracellular side of the membrane. […]
# IP accumulation was measured using Cisbio IP1 assay kit (Cisbio, 62IPAPEB), which has been previously described. […] IP1 was quantified using Synergy H1 microplate reader (BioTek) with excitation at 320 nm, emission at 620 nm, and 665 nm. The accumulation of IP1 was calculated according to a standard dose–response curve in GraphPad Prism 8 (GraphPad Software). […]
# ghrelin receptor mutants = test: NanoBiT-G-protein dissociation, ghrelin receptor mutants, HEK293T cells, Gαio-LgBiT/Gγ-SmBiT, 3–5 min; assay type: cell-based, human; settings: for ΔpEC50 (from the WT): single replicates
# Experimental: Bars represent differences in calculated potency (pEC50) of ghrelin for mutations relative to the WT ghrelin receptor. Data are colored according to the extent of the effect. […], **P < 0.01 and ***P < 0.001. ns no significant difference, nd not detected. All data were analyzed by one-way analysis of variance (ANOVA) followed by Dunnett’s multiple comparison test, compared with the response of WT (P = 0.002, P = 0.002, P = 0.015, P < 0.001, P < 0.001, P = 0.732, P < 0.001, P = 0.843, P = 0.012, P < 0.001, P = 0.003, P < 0.001, P < 0.001 and P < 0.001 from left to right). […] See also Supplementary Figs. 6 and 7. d Detailed interaction of the octanoyl group of Ser^+3 with the key residues from cavity II and salt bridges between E124^3.33 and R283^6.55 are clearly observed in the ghrelin-bound structure.
# For cryo-EM constructs, the full-length of wild-type human ghrelin receptor was subcloned into pFastBac1 vector with an N-terminal FLAG tag and C-terminal 10×His tag. We used the NanoBiT tethering strategy, in which the C-terminus of the ghrelin receptor was directly attached to the LgBiT subunit followed by a TEV protease cleavage site and a double MBP tag. Gβ1 was fused with a C-terminal HiBiT, together with Gγ2 were cloned into pFastBac dual vector. An engineered human Gαo1 with Gαo1 H domain deletion, named miniGαo1 was cloned into pFastBac1 according to published literature. The ghrelin-induced ghrelin receptor activity was measured by NanoBiT-G-protein dissociation assay using a chimeric Gαio protein according to the previous publication except for replacement Gαqo with Gαio[54]. The Gαio were generated by replacing the six amino acids of the C-terminal of Gαi with those from GαoA1. Other constructs including the full-length and various site-directed mutagenesis human ghrelin receptors were cloned into pcDNA3.1 vector for NanoBiT-G-protein dissociation assay. Ghrelin receptor, miniGαo1, and Gβ1γ2 were co-expressed in Sf9 insect cells (Expression System) using the Bac-to-Bac baculovirus expression system (ThermoFisher). The cell pellets were collected by centrifugation 48 h post infection and stored at −80 °C until use.
# G-protein activation was detected by a NanoBiT-G-protein dissociation assay. In brief, HEK293T cells were plated in each well of a six-well plate at a concentration of 0.3 million/ml (2 mL per well). Plasmid transfection was performed with a mixture of 400 ng Gαio-LgBiT, 500 ng Gγ-SmBiT, 500 ng Gβ, 600 ng ghrelin receptor by Lipofectamine 2000 (ThermoFisher Scientific) in 200 μL of Opti-MEM (Gibco). After 1 day of transfection, cells in the six-well plate were digested and resuspended in complete medium DMEM (5% FBS, 1% antibiotic) and plated in a 96-well flat-bottomed white microplate. After 24 h, the cells were washed twice with D-PBS and incubated in 40 μL of 5 μM coelenterazine 400a (Maokangbio) solution diluted 0.01% BSA and 5 mM HEPES (pH 7.5)-containing HBSS (assay buffer) for 1 h at room temperature. Baseline luminescence was measured using a luminescent microplate reader (Tecan). Ghrelin (5×, diluted in the assay buffer) was added to the cells (10 μL) and incubated for 3–5 min at room temperature before the second measurement. The ligand-induced signal ratio was normalized to the baseline luminescence and fold-change signals over vehicle treatment were used to show G-protein dissociation response.
substance,measurement,setting,value
"ghrelin: endogenous agonist, 28-amino acid peptide with octanoyl modification at the side chain of Ser+3 (GSS(Octanoyl)FLSPEHQRVQQRKESKKPPAKLQPR; UniProt Q9UBU3 24-51, looked up)",activation potency,[1],high activation potency as a full agonist
same,ΔpEC50 (from the WT),ghrelin receptor mutants; E124A,-1.682 and -1.692 and -1.769
same,"ghrelin-induced activation, effect of mutation",ghrelin receptor mutants; E124^3.33A,almost abolished the activity of the ghrelin receptor
same,"ghrelin-induced activation, effect of mutation","ghrelin receptor mutants; E124^3.33A, listed as ghrelin peptide",remarkably reduced the activation potency
same,ΔpEC50 (from the WT),ghrelin receptor mutants; F38A,-0.347 and -0.237 and -0.393
same,"ghrelin-induced activation, effect of mutation",ghrelin receptor mutants; F279^6.51A,decreased the activation potency; also recorded: almost abolished the activity of the ghrelin receptor
same,ΔpEC50 (from the WT),ghrelin receptor mutants; F286A,-1.001 and -0.994 and -1.053
same,"ghrelin-induced activation, effect of mutation",ghrelin receptor mutants; F286^6.58A,decreased the receptor activation
same,ΔpEC50 (from the WT),ghrelin receptor mutants; F290A,-0.357 and -0.309 and -0.272
same,ΔpEC50 (from the WT),ghrelin receptor mutants; F309A,-0.421 and -0.648 and -0.344
same,"ghrelin-induced activation, effect of mutation",ghrelin receptor mutants; F309^7.39 mutant,impaired ghrelin-induced G-protein signaling
same,"ghrelin-induced activation, effect of mutation",ghrelin receptor mutants; F312^7.42A,decreased the activation potency; also recorded: impaired ghrelin-induced G-protein signaling
same,ΔpEC50 (from the WT),ghrelin receptor mutants; I178A,-0.256 and -0.542 and -0.472
same,"ghrelin-induced activation, effect of mutation",ghrelin receptor mutants; I178^4.60A,decreased the receptor activation
same,ΔpEC50 (from the WT),ghrelin receptor mutants; L181A,-0.146 and -0.068 and -0.114
same,ΔpEC50 (from the WT),ghrelin receptor mutants; L210A,-0.704 and -0.734 and -0.866
same,"ghrelin-induced activation, effect of mutation",ghrelin receptor mutants; L210^5.36A,decreased the receptor activation
same,ΔpEC50 (from the WT),ghrelin receptor mutants; M213A,-0.105 and -0.084 and -0.1
same,ΔpEC50 (from the WT),ghrelin receptor mutants; N305A,-0.736 and -0.893 and -0.758
same,"ghrelin-induced activation, effect of mutation",ghrelin receptor mutants; N305^7.35A,remarkably reduced the activation potency
same,ΔpEC50 (from the WT),ghrelin receptor mutants; Q302A,-0.891 and -1.104 and -1.015
same,"ghrelin-induced activation, effect of mutation",ghrelin receptor mutants; Q302^7.32 mutant,impaired ghrelin-induced G-protein signaling
same,ΔpEC50 (from the WT),ghrelin receptor mutants; R102A,-0.473 and -0.141 and -0.326
same,"ghrelin-induced activation, effect of mutation",ghrelin receptor mutants; R283^6.55A,almost abolished the activity of the ghrelin receptor
same,"ghrelin-induced activation, effect of mutation","ghrelin receptor mutants; R283^6.55A, listed as ghrelin peptide",almost abolished the efficacy
same,ΔpEC50 (from the WT),ghrelin receptor mutants; S123A,-0.29 and -0.222 and -0.285
same,ΔpEC50 (from the WT),ghrelin receptor mutants; V214A,-0.199 and -0.412 and -0.206
same,"ghrelin-induced activation, effect of mutation",ghrelin receptor mutants; W276^6.48A,decreased the activation potency; also recorded: almost abolished the activity of the ghrelin receptor
same,ΔpEC50 (from the WT),ghrelin receptor mutants; Y106A,-0.423 and -0.136 and -0.417
